Test results taken from US20210085711A1 (Japan Tobacco Inc., priority 2017, published 2021).
Read-outs that look alike come from different tables or passages of the source.

Assays:
[1] = test system: patients with hypermenorrhea and/or patients with hypermenorrhea-associated gynecologic diseases (iron-deficiency anemia patients)
Experimental: (§1) This test was a three-stage safety and efficacy clinical trial at multi-facilities. The first stage was a pre-observation period (Day −40 to Day −1), the second stage was an administration period (Day 1 to Day 48) (efficacy and safety evaluation period), and the third stage was a post-observation period (Day 49 to Day 63) (efficacy and safety evaluation period). The safety evaluation and efficacy evaluation were performed by multi-facility collaboration, placebo control, random allocation, double-blind trial, and parallel group comparison test.
(§2) The administration period of the trial drug is seven weeks which starts from the next day of the Week 0 visit to the day before the Week 7 visit, provided that the trial drug is not taken on the scheduled Week 3 visit.
(§3) The blood hemoglobin value (Hb), the serum iron level, the serum ferritin value, the total iron-binding capacity (TIBC) and the transferrin saturation rate (TSAT), and the mean corpuscular volume (MCV) were each examined at the observation start date, Week 0, Week 3, Week 7, the end of administration and the consultation at nine weeks after Week 0; the hepcidin concentration (Hepcidin 25) and the serum soluble transferrin receptor concentration (sTfR) were each examined on Week 0, Week 3 and Week 7 and at the end of administration; and the C-terminal FGF23 value (cFGF23) and the intact FGF23 value (iFGF23) were each examined on Week 0 and Week 7 and at the end of administration.

[2] = test system: patients with hypermenorrhea and/or patients with hypermenorrhea-associated gynecologic diseases (iron-deficiency anemia patients); assay: Phase II clinical trial of JTT-751: intact FGF23 value (iFGF23); format: in vivo, human
Experimental: as §1
(§4) (1) Japanese patients who are 20 or more and less than 65 years old at the time of agreement and can visit an outpatient clinic (2) Patients who have an Hb value (measured using HemoCue® Hb 201 DM analyzer in the institute of clinical practice) of 7.0 g/dL or more and less than 11.0 g/dL on both the observation start date and Week 0, and the difference between the two days is 1.0 g/dL or less (3) Patients with a TIBC of 360 μg/dL or more or a serum ferritin value of less than 12 ng/mL on the observation start date
as §2, §3

[3] = test system: patients with hypermenorrhea and/or patients with hypermenorrhea-associated gynecologic diseases (iron-deficiency anemia patients); assay: Phase II clinical trial of JTT-751: serum ferritin value; format: in vivo, human
Experimental: as §1, §4, §2
(2) Subsidiary evaluation items 1) Erythrocyte-related examination values and amount of change from Week 0 at each observation date 2) Iron-related test values and amount of change from Week 0 at each observation date 3) Achievement rate of target Hb value (female; 12.0 g/dL or more, male; 13.0 g/dL or more) at each observation date 4) Achievement rate of 1.0 g/dL or more and achievement rate of 2.0 g/dL or more in Hb value improvement from Week 0 at each observation date 5) Average daily change of Hb value from Week 0 to each observation date
as §3

[4] = 250 mg/day, 9 weeks after Week 0
[5] = 250 mg/day, End of administration
[6] = 500 mg/day, 9 weeks after Week 0
[7] = 500 mg/day, End of administration
[8] = 1000 mg/day, 9 weeks after Week 0
[9] = 1000 mg/day, End of administration
[10] = 1500 mg/day, 9 weeks after Week 0
[11] = 1500 mg/day, End of administration
[12] = End of administration, JTT-751 250 mg group
[13] = End of administration, JTT-751 500 mg group
[14] = End of administration, JTT-751 1000 mg group
[15] = End of administration, JTT-751 1500 mg group
[16] = Week 0 (baseline), JTT-751 250 mg group
[17] = Week 0 (baseline), JTT-751 500 mg group
[18] = Week 0 (baseline), JTT-751 1000 mg group
[19] = Week 0 (baseline), JTT-751 1500 mg group
[20] = 250 mg/day, Week 3 (Week 0 not given)
[21] = 500 mg/day, Week 3 (Week 0 not given)
[22] = 1000 mg/day, Week 3 (Week 0 not given)
[23] = 1500 mg/day, Week 3 (Week 0 not given)

## Ferric citrate [JTT-751]
[1]; [4]
  TSAT, profile from the baseline (value at Week 0), Mean: 4.29%
  TSAT, profile from the baseline (value at Week 0), Median: 3.85%
[1]; [5]
  TSAT, profile from the baseline (value at Week 0), Mean: 9.12%
  TSAT, profile from the baseline (value at Week 0), Median: 7.60%
[1]; 250 mg/day, Week 3
  TSAT, profile from the baseline (value at Week 0), Mean: 5.26%
  TSAT, profile from the baseline (value at Week 0), Median: 4.85%
[1]; 250 mg/day, Week 7
  TSAT, profile from the baseline (value at Week 0), Mean: 9.12%
  TSAT, profile from the baseline (value at Week 0), Median: 7.60%
[1]; [6]
  TSAT, profile from the baseline (value at Week 0), Mean: 7.27%
  TSAT, profile from the baseline (value at Week 0), Median: 5.90%
[1]; [7]
  TSAT, profile from the baseline (value at Week 0), Mean: 12.27%
  TSAT, profile from the baseline (value at Week 0), Median: 12.35%
[1]; 500 mg/day, Week 3
  TSAT, profile from the baseline (value at Week 0), Mean: 8.57%
  TSAT, profile from the baseline (value at Week 0), Median: 3.60%
[1]; 500 mg/day, Week 7
  TSAT, profile from the baseline (value at Week 0), Mean: 12.27%
  TSAT, profile from the baseline (value at Week 0), Median: 12.35%
[1]; [8]
  TSAT, profile from the baseline (value at Week 0), Mean: 12.42%
  TSAT, profile from the baseline (value at Week 0), Median: 12.60%
[1]; [9]
  TSAT, profile from the baseline (value at Week 0), Mean: 15.46%
  TSAT, profile from the baseline (value at Week 0), Median: 16.20%
[1]; 1000 mg/day, Week 3
  TSAT, profile from the baseline (value at Week 0), Mean: 15.56%
  TSAT, profile from the baseline (value at Week 0), Median: 9.90%
[1]; 1000 mg/day, Week 7
  TSAT, profile from the baseline (value at Week 0), Mean: 15.46%
  TSAT, profile from the baseline (value at Week 0), Median: 16.20%
[1]; [10]
  TSAT, profile from the baseline (value at Week 0), Mean: 11.41%
  TSAT, profile from the baseline (value at Week 0), Median: 9.95%
[1]; [11]
  TSAT, profile from the baseline (value at Week 0), Mean: 16.70%
  TSAT, profile from the baseline (value at Week 0), Median: 16.00%
[1]; 1500 mg/day, Week 3
  TSAT, profile from the baseline (value at Week 0), Mean: 15.59%
  TSAT, profile from the baseline (value at Week 0), Median: 7.90%
[1]; 1500 mg/day, Week 7
  TSAT, profile from the baseline (value at Week 0), Mean: 16.70%
  TSAT, profile from the baseline (value at Week 0), Median: 16.00%
[2]; 1000 mg administration group and 1500 mg administration group
  intact FGF23 value (iFGF23), time-dependent change: decreased along with the continuous administration of the JTT-751 tablet and improved
[2]; [12]
  iFGF23, Mean: 34.74 pg/mL
  iFGF23, Median: 33.65 pg/mL
[2]; [13]
  iFGF23, Mean: 41.06 pg/mL
  iFGF23, Median: 38.20 pg/mL
[2]; [14]
  iFGF23, Mean: 33.62 pg/mL
  iFGF23, Median: 30.40 pg/mL
[2]; [15]
  iFGF23, Mean: 36.30 pg/mL
  iFGF23, Median: 35.00 pg/mL
[2]; [16]
  iFGF23, Mean: 36.73 pg/mL
  iFGF23, Median: 33.90 pg/mL
[2]; [17]
  iFGF23, Mean: 43.53 pg/mL
  iFGF23, Median: 42.05 pg/mL
[2]; [18]
  iFGF23, Mean: 41.93 pg/mL
  iFGF23, Median: 42.50 pg/mL
[2]; [19]
  iFGF23, Mean: 46.09 pg/mL
  iFGF23, Median: 44.00 pg/mL
[2]; Week 7, JTT-751 250 mg group
  iFGF23, Mean: 34.74 pg/mL
  iFGF23, Median: 33.65 pg/mL
[2]; Week 7, JTT-751 500 mg group
  iFGF23, Mean: 41.06 pg/mL
  iFGF23, Median: 38.20 pg/mL
[2]; Week 7, JTT-751 1000 mg group
  iFGF23, Mean: 33.62 pg/mL
  iFGF23, Median: 30.40 pg/mL
[2]; Week 7, JTT-751 1500 mg group
  iFGF23, Mean: 36.30 pg/mL
  iFGF23, Median: 35.00 pg/mL
[3]; [4]
  Ferritin, Mean: 2.88 ng/mL
  Ferritin, Median: 2.60 ng/mL
[3]; [5]
  Ferritin, Mean: 11.38 ng/mL
  Ferritin, Median: 11.45 ng/mL
[3]; [20]
  Ferritin, Mean: 11.16 ng/mL
  Ferritin, Median: 7.70 ng/mL
[3]; 250 mg/day, Week 7
  Ferritin, Mean: 11.38 ng/mL
  Ferritin, Median: 11.45 ng/mL
[3]; [6]
  Ferritin, Mean: 4.28 ng/mL
  Ferritin, Median: 3.60 ng/mL
[3]; [7]
  Ferritin, Mean: 16.12 ng/mL
  Ferritin, Median: 14.30 ng/mL
[3]; [21]
  Ferritin, Mean: 15.26 ng/mL
  Ferritin, Median: 12.40 ng/mL
[3]; 500 mg/day, Week 7
  Ferritin, Mean: 16.12 ng/mL
  Ferritin, Median: 14.30 ng/mL
[3]; [8]
  Ferritin, Mean: 7.51 ng/mL
  Ferritin, Median: 7.20 ng/mL
[3]; [9]
  Ferritin, Mean: 17.02 ng/mL
  Ferritin, Median: 16.30 ng/mL
[3]; [22]
  Ferritin, Mean: 26.96 ng/mL
  Ferritin, Median: 23.20 ng/mL
[3]; 1000 mg/day, Week 7
  Ferritin, Mean: 17.02 ng/mL
  Ferritin, Median: 16.30 ng/mL
[3]; [10]
  Ferritin, Mean: 5.83 ng/mL
  Ferritin, Median: 5.35 ng/mL
[3]; [11]
  Ferritin, Mean: 17.38 ng/mL
  Ferritin, Median: 16.60 ng/mL
[3]; [23]
  Ferritin, Mean: 20.43 ng/mL
  Ferritin, Median: 22.20 ng/mL
[3]; 1500 mg/day, Week 7
  Ferritin, Mean: 17.38 ng/mL
  Ferritin, Median: 16.60 ng/mL
[3]; continuous administration from Week 0 to Week 3
  serum ferritin value (printed: serum iron level), increased to a normal value: 12 to 30 ng/mL
